System: Ratte
Assay: Abortive effect in pregnant rats (measure of antigestagenic activity)
Type: in vivo
Settings: for n Abort / n Gesamt: subcutan, d5 p.c. to d7 p.c., uteri examined d9 p.c., absence of implants counted as abortion
Text: Zur Kennzeichnung der antigestagenen Wirkung wurde die abortive Wirkung bestimmt.
Die Versuche wurden an weiblichen Ratten im Gewicht von ca. 200 g durchgeführt. Nach erfolgter Anpaarung wurde der Schwangerschaftsbeginn durch Nachweis von Spermien in Vaginalabstrichen gesichert. Der Tag des Spermiennachweises gilt als Tag 1 der Gravidität (= dl p.c.).
Die Behandlung der Tiere mit der jeweils zu testenden Substanz bzw. dem Lösungsmittel erfolgte nach der Nidation der Blastocysten von d5 p.c. bis d7 p.c.
An d9 p.c. wurden die Tiere getötet und die Uteri auf Implantate und Resorptionsstellen hin untersucht. Von allen Uteri wurden Fotos angefertigt. Das Fehlen von Implantaten wurde als Abort gewertet.
Die Testsubstanzen wurden in einem Benzylbenzoat-Rizinusöl-Gemisch (Verhältnis 1 + 9) gelöst. Das Vehikelvolumen pro Einzeldosis betrug 0,2 ml. Die Behandlung erfolgte subcutan.

SMILES: CC#C[C@]1(O)C=CC[C@H]2[C@@H]3CCC4=CC(=O)CCC4=C3[C@@H](c3ccc(N(C)C)cc3)C[C@@]21C [A, 11ß-(4-Dimethylaminophenyl)-17aß-hydroxy-17aα-(1-propinyl)-U-homo-4,9,16-estratrien-3-on]
- Wirksamkeit (Abortauslösung) (Dosierung 1,0 mg, result in words): voll wirksam
- n Abort / n Gesamt (Dosis 0.3 mg/Tier/Tag): 2/4
- n Abort / n Gesamt (Dosis 1.0 mg/Tier/Tag): 4/4
- n Abort / n Gesamt (Dosis 3.0 mg/Tier/Tag): 4/4
- n Abort / n Gesamt (Dosis 10.0 mg/Tier/Tag): 4/4

SMILES: CC#C[C@]1(O)CC[C@H]2[C@@H]3CCC4=CC(=O)CCC4=C3[C@@H](c3ccc(N(C)C)cc3)C[C@@]21C [B, 11ß-(4-Dimethylaminophenyl)-17ß-hydroxy-17a-(propin-1-yl)-4,9(10)-estradien-3-on, reference compound]
- Aborte (Dosierung 1,0 mg): 50%
- n Abort / n Gesamt (Dosis 1.0 mg/Tier/Tag): 2/4
- n Abort / n Gesamt (Dosis 3.0 mg/Tier/Tag): 4/4
- n Abort / n Gesamt (Dosis 10.0 mg/Tier/Tag): 4/4
